In assay [1] the target is human VAP-1 enzyme (SSAO) (Homo sapiens (Human), UniProt Q16853). Put plainly: Inhibitory effect on human VAP-1 enzyme (SSAO) activity, radiochemistry-enzymatic assay with 14C-benzylamine. The conditions noted are these: enzyme from CHO cells expressing human VAP-1; 14C-benzylamine 1×10^−5 mol/L. Type of assay: biochemical. How it is done: Inhibitory Effect of Compound on Human VAP-1 Enzyme (SSAO) Activity
(§1) A human VAP-1 enzyme (SSAO) activity was measured by a radiochemistry-enzymatic assay using ^14C-benzylamine as an artificial substrate. An enzyme suspension prepared from CHO (Chinese Hamster Ovary) cells stably expressing a human VAP-1 enzyme (SSAO) was preincubated with the compound of the present invention in a 96-well microplate at room temperature for 30 minutes. Subsequently, the enzyme suspension was incubated with ^14C-benzylamine (a final concentration of 1×10^−5 mol/L) to a final volume of […] at 37° C. for 1 hour. The enzymatic reaction was stopped by the addition of 2 mol/L (50 μL) of citric acid. The oxidation products were extracted directly in a 200-μL toluene scintillator, and the radioactivity was measured with a scintillation spectrometer.
(§2) In addition, the inhibitory activity is expressed in IC50 (nmol/L).

Assay [2] relates to VAP-1 enzyme activity in plasma. Put plainly: Plasma VAP-1 enzyme activity after oral administration to rats (radio-enzyme assay). The format is in vivo, Wistar male rats. Particulars: rat, oral 1 mg/kg; for Inhibition Ratio (%) of plasma VAP-1 activity, 1 h: 1 h after administration; for Inhibition Ratio (%) of plasma VAP-1 activity, 3 h: 3 h after administration; for Inhibition Ratio (%) of plasma VAP-1 activity, 6 h: 6 h after administration; for Inhibition Ratio (%) of plasma VAP-1 activity, 12 h: 12 h after administration. How it is done: Eight-week to twelve-week Wistar male rats were fasted for 20 hours, and orally administered with a test drug (1 mg/1 kg). Heparin blood collection from the tail vein was performed immediately before the administration, and at 1 h, 3 h, 6 h, and 12 h after the administration. The resulting blood was subjected to centrifugation at 14000 rpm for 5 minutes to separate plasma, and the VAP-1 enzyme activity in the resulting plasma was measured by a radio-enzyme assay method.
For the radio-enzyme assay method, ^14C-benzylamine which is a synthetic substrate (10 μM) was reacted with the resulting plasma at 37° C., and the resulting metabolite was extracted with a mixture of toluene/ethyl acetate. The radioactivity was measured and taken as a VAP-1 enzyme activity in the plasma. The effect of the test drug was calculated from the ratio (%) of the VAP-1 activity after the administration of the test drug relative to the VAP-1 activity in the plasma immediately before the administration (100%).

The next assay addresses rat VAP-1 enzyme (SSAO) (Rattus norvegicus (Rat), UniProt O08590). Put plainly: Inhibitory effect on rat VAP-1 enzyme (SSAO) activity, radiochemistry-enzymatic assay with 14C-benzylamine. The format is biochemical. Particulars: enzyme from CHO cells expressing rat VAP-1; 14C-benzylamine 1×10^−5 mol/L. How it is done: Inhibitory Effect of Compound on Rat VAP-1 Enzyme (SSAO) Activity
as §1, with “rat VAP-enzyme 1” for “human VAP-1 enzyme”
as §2

Sequence of rat VAP-1 enzyme (SSAO) (O08590 whole entry): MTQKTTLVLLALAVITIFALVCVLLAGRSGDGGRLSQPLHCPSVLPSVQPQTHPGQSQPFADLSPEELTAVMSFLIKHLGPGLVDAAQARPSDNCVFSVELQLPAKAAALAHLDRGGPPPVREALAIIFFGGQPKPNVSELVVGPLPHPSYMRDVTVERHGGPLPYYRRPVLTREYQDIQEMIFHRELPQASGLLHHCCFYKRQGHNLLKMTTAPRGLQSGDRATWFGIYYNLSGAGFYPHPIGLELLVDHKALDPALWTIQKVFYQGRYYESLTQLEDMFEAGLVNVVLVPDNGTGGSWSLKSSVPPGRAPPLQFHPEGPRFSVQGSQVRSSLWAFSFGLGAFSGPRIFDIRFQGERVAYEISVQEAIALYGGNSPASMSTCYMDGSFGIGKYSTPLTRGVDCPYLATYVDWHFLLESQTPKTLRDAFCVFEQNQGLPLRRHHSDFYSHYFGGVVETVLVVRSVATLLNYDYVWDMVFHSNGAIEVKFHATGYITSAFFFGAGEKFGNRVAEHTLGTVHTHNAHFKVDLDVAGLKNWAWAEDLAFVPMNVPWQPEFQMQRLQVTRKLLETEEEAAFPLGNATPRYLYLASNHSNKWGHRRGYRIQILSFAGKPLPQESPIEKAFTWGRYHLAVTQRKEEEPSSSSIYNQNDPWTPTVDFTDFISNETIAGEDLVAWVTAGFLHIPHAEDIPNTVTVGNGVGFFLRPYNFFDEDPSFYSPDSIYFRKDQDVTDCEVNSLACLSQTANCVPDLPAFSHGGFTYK
Sequence of human VAP-1 enzyme (SSAO) (Q16853 whole entry): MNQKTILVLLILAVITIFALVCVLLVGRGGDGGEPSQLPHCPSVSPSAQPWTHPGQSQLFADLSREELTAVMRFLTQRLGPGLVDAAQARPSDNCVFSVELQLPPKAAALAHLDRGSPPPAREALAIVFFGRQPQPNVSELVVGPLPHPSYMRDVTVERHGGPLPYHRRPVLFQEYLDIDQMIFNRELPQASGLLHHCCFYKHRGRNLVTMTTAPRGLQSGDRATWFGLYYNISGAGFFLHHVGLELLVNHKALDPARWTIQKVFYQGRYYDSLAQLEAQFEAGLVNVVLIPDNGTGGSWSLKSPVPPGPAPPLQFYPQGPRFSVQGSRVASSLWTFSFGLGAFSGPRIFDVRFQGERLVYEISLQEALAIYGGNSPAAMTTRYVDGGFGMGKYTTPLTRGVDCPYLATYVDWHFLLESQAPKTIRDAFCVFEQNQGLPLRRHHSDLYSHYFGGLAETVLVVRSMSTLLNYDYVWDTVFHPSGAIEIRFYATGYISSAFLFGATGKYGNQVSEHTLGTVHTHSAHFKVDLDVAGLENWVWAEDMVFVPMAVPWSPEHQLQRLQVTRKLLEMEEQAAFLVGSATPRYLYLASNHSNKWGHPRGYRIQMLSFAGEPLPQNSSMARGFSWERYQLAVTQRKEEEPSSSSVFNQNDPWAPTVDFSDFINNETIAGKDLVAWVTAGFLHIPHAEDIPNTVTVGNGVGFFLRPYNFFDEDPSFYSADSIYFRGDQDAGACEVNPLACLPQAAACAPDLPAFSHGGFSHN

As for `Cc1nc2c(s1)CN(c1ncc(-c3cccc(CN(C)C(=O)CN)c3)cn1)CC2` [Ex 102], the midpoint of inhibition in assay [1], the IC50, lay at 20 nM. In assay [2], the “Inhibition Ratio (%) of plasma VAP-1 activity, 1 h” value (“Inhibition Ratio (%) … 1 h” for short) is reported as 65%; the “Inhibition Ratio (%) of plasma VAP-1 activity, 3 h” value (“Inhibition Ratio (%) … 3 h” for short) is recorded as 62%; the “Inhibition Ratio (%) of plasma VAP-1 activity, 6 h” value (“Inhibition Ratio (%) … 6 h” for short) turned out to be 71%; the “Inhibition Ratio (%) of plasma VAP-1 activity, 12 h” value (“Inhibition Ratio (%) … 12 h” for short) is 40%. The 50% inhibitory concentration (IC50) on rat VAP-1 enzyme (SSAO) was found to be 12 nM.
In the case of `CN(Cc1cccc(-c2cnc(N3CCN(c4ccc(C#N)nc4)CC3)nc2)c1)C(=O)CN` [Example 261, N-(3-{2-[4-(6-cyanopyridin-3-yl)piperazin-1-yl]pyrimidin-5-yl}benzyl)-N-methylglycinamide L-tartrate], it took 17 nM to reach half-maximal inhibition in assay [1] (IC50). Further, in assay [2], the “Inhibition Ratio (%) … 1 h” value is reported as 36%; the “Inhibition Ratio (%) … 3 h” value amounted to 44%; the “Inhibition Ratio (%) … 6 h” value amounted to 45%; the “Inhibition Ratio (%) … 12 h” value was 32%. On rat VAP-1 enzyme (SSAO), this molecule came in with a half-maximal inhibitory concentration (IC50) of 21 nM.
In the case of `CN(Cc1cccc(-c2cnc(N3CCS(=O)(=O)CC3)nc2)c1)C(=O)CN` [Ex 216], the IC50 in assay [1] was found to be 90 nM. For the same molecule, in assay [2], the “Inhibition Ratio (%) … 1 h” value came to 25%; the “Inhibition Ratio (%) … 3 h” value is −7%; the “Inhibition Ratio (%) … 6 h” value amounted to 15%; the “Inhibition Ratio (%) … 12 h” value came to 25%. At rat VAP-1 enzyme (SSAO), this molecule displayed an IC50 of 40 nM.
On to `CN(Cc1cccc(-c2cnc(N3CCN(c4ncccc4Cl)CC3)nc2)c1)C(=O)CN` [Ex 147], for which the concentration for half-maximal inhibition (IC50) in assay [1] came to 72 nM. Besides, in assay [2], the “Inhibition Ratio (%) … 1 h” value was found to be 70%; the “Inhibition Ratio (%) … 3 h” value worked out at 79%; the “Inhibition Ratio (%) … 6 h” value was found to be 75%; the “Inhibition Ratio (%) … 12 h” value is reported as 66%. The same molecule yielded a half-maximal inhibitory concentration (IC50) against rat VAP-1 enzyme (SSAO) of 44 nM.
In turn, `CN(Cc1cccc(-c2cnc(N3CCC(c4cccnc4)CC3)nc2)c1)C(=O)CN` [Ex 190] displayed a half-inhibitory concentration (IC50) in assay [1] of 23 nM. Besides, in assay [2], the “Inhibition Ratio (%) … 1 h” value came out at 42%; the “Inhibition Ratio (%) … 3 h” value came out at 48%; the “Inhibition Ratio (%) … 6 h” value is on record as 41%; the “Inhibition Ratio (%) … 12 h” value is 11%. Inhibition against rat VAP-1 enzyme (SSAO) was half-maximal at 19 nM (IC50).

The values above are taken from patent publication US8802679B2, “Glycine compound” (Astellas Pharma Inc., priority 2009, dated 2014).
